Data on three compounds can be found in patent publication US5348956A, “Substituted cyclopropylamino-1,3,5-triazines” (UCB S.A., priority 1991, dated 1994).

Data set [1] relates to bronchospasm induced by serotonin. In words: bronchospasmolytic activity (Konzett and Roessler), bronchospasm induced by serotonin. Conditions: Cavia porcellus; intravenous; serotonin-induced bronchospasm; read-out: Doses (ID50), Serotonin. The format is in vivo, Dunkin-Hartley guinea-pig. In outline:
(§1)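 Anesthetized (urethane), curarized, ventilated Dunkin-Hartley guinea-pigs with endotracheal pressure recorded after histamine, serotonin or acetylcholine challenge. Compound given i.v. 2 min before spasmogen, then in 3–4 increasing cumulative doses at 15-min intervals; six animals per compound and spasmogen.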

For data set [2], the system named is bronchospasm induced by histamine. In words: bronchospasmolytic activity (Konzett and Roessler), bronchospasm induced by histamine. The format is in vivo, Dunkin-Hartley guinea-pig. The settings on record: Cavia porcellus; intravenous; histamine-induced bronchospasm; read-out: Doses (ID50), Histamine. A digest of the protocol: as §1
The subject of data set [3] is bronchospasm induced by acetylcholine. In words: bronchospasmolytic activity (Konzett and Roessler), bronchospasm induced by acetylcholine. The data set is classed as in vivo, Dunkin-Hartley guinea-pig. The settings on record: Cavia porcellus; intravenous; acetylcholine-induced bronchospasm; read-out: Doses (ID50), Acetylcholine. In outline:
as §1

Data set [4] has as its system anaphylactic release of histamine, guinea-pig lung sections. In words: inhibition of the anaphylactic release of histamine (proper effect). The data set is classed as cell-based, Dunkin-Hartley guinea-pigs. The settings on record: Cavia porcellus, in vitro, read-out: Minimum inhibitory dose (MID).
For data set [5] the test system is unchanged. In words: potentiation of the inhibition of anaphylactic histamine release by isoprenaline. The format is cell-based, Dunkin-Hartley guinea-pigs. Conditions: with isoprenaline 10^-7 mole per liter.
For data set [6], the system named is longitudinal muscles of the ileum contracted by histamine. In words: potentiation of the myorelaxing effect of isoprenaline on the ileum. The data set is classed as cell-based, Dunkin-Hartley guinea-pigs. Conditions: with isoprenaline 10^-7 mole/l; histamine 3.2 μmoles/l. In outline:
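Isolated ileal longitudinal muscle contracted by repeated histamine injections; test compound injected after wash, and the next histamine contraction compared with the mean of three preceding control contractions to give % inhibition. Potentiation cycle: % inhibition by compound alone at a given dose, then with isoprenaline co-injected, repeated per dose.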

The next data set relates to PMN granulocytes. In words: inhibition of the stimulation of PMN granulocytes (chemiluminescence). The data set is classed as cell-based, Rat. Conditions: Rattus norvegicus; 10^-6 mole/l; FMLP 3.2×10^-7 mole/liter; read-out: Residual chemiluminescence. In outline: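 Rat PMN granulocytes (5×10^6/ml) preincubated 15 min at 37 °C in pH 7.4 phosphate buffer with 10^-5 M luminol, then 5 min with compound at 10^-6 mol/l before stimulation. Luminol chemiluminescence measured over 38 s cycles; 9 repeats per compound, averaged.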

A short description of a further data set: toxicity, Irwin's test. The data set is classed as in vivo. Conditions: i.p.; death of two animals out of three within 48 hours. The procedure: Progressive doses of the compound to be tested are administered intraperitoneally to groups of three mice until the lethal dose is reached (dose which causes the death of two animals out of three within 48 hours).

The test system of data set [7] is amnesia induced by scopolamine. In words: multiple-trial passive avoidance: mnemic retention, amnesia induced by scopolamine.

With `OC1CN(c2nc(NC3CC3)nc(C3CC3)n2)C1` [Compound 13], the ED50 in [1] worked out at 0.6 µmol/kg; in [2] it was 0.1 µmol/kg; in [3], 1.3 µmol/kg. Further, the minimal effective concentration in [4] was 1 µM. For the same compound, the “Minimum potentiating dose (MPD)” value in data set [5] and in data set [6] was 1.0 µmol/L throughout. Further, the activity at 1 µM with PMN granulocytes was 79%. Moreover, the Lethal dose in the data set “toxicity, Irwin's test” stood at 247.3 mg/kg. In addition, the “Period of remaining on the mat, group 4” value in data set [7] (4 hours, 2.5 mg/kg i.p. + 0.5 mg scopolamine) amounted to 55.3 s; in data set [7] (24 hours, 2.5 mg/kg i.p. + 0.5 mg scopolamine), 92.5 s; in data set [7] (28 hours, 2.5 mg/kg i.p. + 0.5 mg scopolamine), 99.0 s; in data set [7] (time 0, 2.5 mg/kg i.p. + 0.5 mg scopolamine), 7.7 s.

Consider `CCCc1nc(NC2CC2)nc(N2CCOCC2)n1` [Compound 1, 2-Cyclopropylamino-4-morpholino-6-n-propyl-1,3,5-triazine], for which the ED50 in data set [1] was found to be 0.01 µmol/kg; in data set [2], 0.01 µmol/kg; in [3], 0.1 µmol/kg. For the same compound, in data set [4], the minimal effective concentration was determined as 0.1 µM. Besides, the “Minimum potentiating dose (MPD)” value in [5] was 0.32 µmol/L; in [6], 0.032 µmol/L. Further, the activity at 1 µM in the data set on PMN granulocytes was 47%. Besides, the Lethal dose in “toxicity, Irwin's test” is recorded as 898 mg/kg. Moreover, the “Period of remaining on the mat, group 4” value turned out to be 42.8 s in [7] (4 hours, 3.0 mg/kg i.p. + 0.5 mg scopolamine); 77.2 s in [7] (24 hours, 3.0 mg/kg i.p. + 0.5 mg scopolamine); 114.6 s in data set [7] (28 hours, 3.0 mg/kg i.p. + 0.5 mg scopolamine); 19.2 s in data set [7] (time 0, 3.0 mg/kg i.p. + 0.5 mg scopolamine).

In the case of `CCc1nc(NC2CC2)nc(N2CCOCC2)n1` [Compound 2], the ED50 in [1] turned out to be 0.5 µmol/kg; in data set [2], 0.3 µmol/kg; in [3], 0.5 µmol/kg. In addition, in data set [4], the minimal effective concentration amounted to 1 µM. In addition, the “Minimum potentiating dose (MPD)” value in data set [5] amounted to 3.2 µmol/L; in [6], 1.0 µmol/L. Besides, the activity at 1 µM in the data set with PMN granulocytes is 68%. Moreover, the Lethal dose in “toxicity, Irwin's test” turned out to be 285 mg/kg. The “Period of remaining on the mat, group 4” value in data set [7] (4 hours, 1.0 mg/kg i.p. + 0.5 mg scopolamine) is 18.9 s; in data set [7] (24 hours, 1.0 mg/kg i.p. + 0.5 mg scopolamine), 24.3 s; in data set [7] (28 hours, 1.0 mg/kg i.p. + 0.5 mg scopolamine), 36.5 s; in data set [7] (time 0, 1.0 mg/kg i.p. + 0.5 mg scopolamine), 7.9 s.
